Read-outs that look alike come from different tables or passages of the source.
How the values were obtained:
[1] = system: HBV (3TC-resistant virus: rtV204) in HepAD79 cells; assay: microbe, parasite or virus in culture; assay type: cell-based; details: for HepAD79 log10 inhibition at 10 μM: HBV DNA in supernatant; for activity against the mutant virus (in words): rtV204 mutant virus; for FI EC90 AD79/EC90 AD38: fold increase, EC90 HepAD79 over EC90 HepAD38
Method: (§1) HepAD38 and HepAD79 cells were seeded at 5×10^4 cells/well in a 96-well plate in seeding medium (DMEM/F12+10% FBS, 50 μg/ml penicillin, 50 μg/ml streptomycin, 100 μg/ml kanamycin, 400 μg/ml G418, and 0.3 μg/ml tetracycline) and incubated for 2 days at 37° C. in a 5% CO2, humidified atmosphere. The seeding media was removed, and cells were washed 3 times with PBS. Cells were then incubated with 200 μL assay medium (DMEM/F12+10% FBS+P/S/K) containing either (i) no compound, (ii) test compound, or (iii) control drugs at 10 μM. After an additional 5-day (HepAD38) or 13-day incubation (HepAD79, with renewal of the culture media at day 7), the cell supernatant was collected and stored at −70° C. until HBV DNA was quantified.
HBV DNA was extracted from supernatant using QiaAmp DNA blood Mini kit (Qiagen) and nucleic acids eluted in 200 μl Viral DNA was detected by quantitative PCR (Q-PCR). The TaqMan probe and primers were designed using the Primer Express software (Applied Biosystems) and cover highly conserved sequences complementary to the DNA sequences present in HBsAg. A total of 5 μl DNA was amplified using reagents and conditions as described by the manufacturer (Applied Biosystems).
Subsequently, the time course of viral induction in HepAD79 cells over a 13-day incubation period was investigated.
Therefore, the DNA extracted from the cell supernatant was also amplified by Q-PCR for the presence of cellular DNA (the rRNA gene).

[2] = system: HBV (wild-type virus: rtM204) in HepAD38 cells; assay: Suppression of HBV production in HepAD38 cells, viral DNA in supernatant by Q-PCR; assay type: cell-based; details: for HepAD38 log10 inhibition at 10 μM: HBV DNA in supernatant; for EC90: read-out: HepAD38 EC90
Source text: The HepAD38 (wild-type virus: rtM204) and HepAD79 (3TC-resistant virus: rtV204) (Stuyver L. J. et al. 2001, Hepatol., 33:751-757) cell lines replicate HBV under conditions that can be regulated with tetracycline (King R. W. et al. 2000, Methods in Molecular Medicine, Vol 24: Antiviral Methods and Protocols, 43-50 (eds: D. Kinchington & R. F. Schinazi), Humana Press Inc, Totowa, N.J.); Ladner, et al. 1997, Antimicrob. Agents Chemother., 41:1715-1720; Ladner S. K., et al. 1998a. Antivir. Chem. Chemother., 9:65-72; Ladner S. K., et al. 1998b. Antimicrob. Agents Chemother., 42:2128-31). In the presence of this drug, the cell supernatant is virtually free of viral DNA, but upon the removal of tetracycline from the culture medium, these cells secrete virus-like particle into the supernatant.
as §1
HBV DNA was extracted from supernatant using QiaAmp DNA blood Mini kit (Qiagen) and nucleic acids eluted in 200 μl Viral DNA was detected by quantitative PCR (Q-PCR). The TaqMan probe and primers were designed using the Primer Express software (Applied Biosystems) and cover highly conserved sequences complementary to the DNA sequences present in HBsAg. A total of 5 μl DNA was amplified using reagents and conditions as described by the manufacturer (Applied Biosystems). […]

[3] = system: HepG2 cells (mitochondrial COXII DNA); details: for effect on mitochondrial DNA levels (in words): HepG2, up to 100 μM
HepG2 cells [4] = assay: Lactic acid production in HepG2 cells; assay type: cell-based, human; details: HepG2, up to 100 μM, 14 days
Method: (§2) In addition, these compounds were also tested in the HepG2 cell line (14-day treatment, 100 μM) for their ability to reduce mitochondrial DNA levels (using a newly designed normalized Q-PCR protocol as described in Stuyver, L. J., et al. 2002, Antimicrob. Agents Chemother., 46:3854-3860) or lactic acid production.

HepG2 cells [5] = assay: Cell growth of HepG2 cells during 14-day treatment; assay type: cell-based, human; details: HepG2, up to 100 μM, 14 days
Method: as §2

[6] = HepAD79 cells, 13-day incubation
[7] = HepAD79 cells, 13-day incubation, read-out: HepAD79 EC90
[8] = HepAD38 cells, 5-day incubation
[9] = HepAD38 cells, 5-day incubation, concentration reducing viral load by 90%, unit printed in text only
[10] = Hepatitis B virus, 312 h, read-out: HepAD79 EC90, HepAD79 cells, 13-day incubation
[11] = HepG2, 14-day treatment, 100 μM

SMILES | HepAD79 log10 inhibition at 10 μM [1, 6] | EC90 [1, 7] | HepAD38 log10 inhibition at 10 μM [2, 8] | EC90 [2, 9] | Average ΔCt ± s.d. MitCoxII ([3]; HepG2, 14-day treatment, 10 μM) | Average ΔCt ± s.d. rDNA ([3]; HepG2, 14-day treatment, 10 μM) | Average ΔΔCt ± s.d. MitCOXII-rDNA ([3]; HepG2, 14-day treatment, 10 μM) | Fold difference in COXII DNA levels normalized for rDNA (range) relative to control ([3]; HepG2, 14-day treatment, 10 μM) | Average ΔCt ± s.d. MitCoxII [3, 11] | Average ΔCt ± s.d. rDNA [3, 11] | Average ΔΔCt ± s.d. MitCOXII-rDNA [3, 11] | Fold difference in COXII DNA levels normalized for rDNA (range) relative to control [3, 11] | other results
Nc1nc(=O)n(C2CSC(CO)O2)cc1F (single isomer, unassigned; (-)) [(−)-FTC, (−)-enantiomer of 2-hydroxymethyl-5-(5-fluorocytosin-1-yl)-1,3-oxathiolane] | 0.28 log10 | > 10 µM | 1.59 ± 0.14 log10 | 1160 ± 660 nM |  |  |  |  |  |  |  |  | 
Nc1ccn([C@@H]2CS[C@H](CO)O2)c(=O)n1 [3TC, (−)-enantiomer of 2-hydroxymethyl-5-(cytosin-1-yl)-1,3-oxathiolane] | 0.67 ± 0.03 log10 |  | 1.97 ± 0.28 log10 |  |  |  |  |  |  |  |  |  | EC90 [1, 10]: > 10 µM; EC90 ([2]; Hepatitis B virus, 120 h, HepAD38 cells, 5-day incubation, concentration reducing viral load by 90%): 50 nM
Nc1ncnc2c1ncn2CCOCP(=O)(O)O [Adefovir] | 0.91 ± 0.11 log10 |  | 0.72 ± 0.12 log10 |  |  |  |  |  |  |  |  |  | EC90 [1, 10]: > 10 µM; EC90 ([1]; read-out: HepAD79 EC90, HepAD79 cells, 13-day incubation): ~10 µM; EC90 ([2]; Hepatitis B virus, HePAD38, 120 h): > 10000 nM
Nc1ccn([C@H]2O[C@@H](CO)C=C2F)c(=O)n1 [L-2′F-D4C] | 0.33 log10 | > 10 µM | 1.77 ± 0.13 log10 | 740 nM | −0.36 ± 0.02 | −0.06 ± 0.27 | −0.30 ± 0.28 | 1.23 (1.02-1.50) | 0.33 ± 0.21 | 0.53 ± 0.60 | −0.20 ± 0.40 | 1.15 (0.87-1.52) | activity against the mutant virus (in words) [1]: completely inactive; inhibition of wild type HBV (in words) [2]: potent inhibitors
Nc1nc(=O)n([C@H]2O[C@@H](CO)C=C2F)cc1F [L-2′F-D4FC] | 0.23 log10 | > 10 µM | 1.91 ± 0.13 log10 | 630 nM | 0.05 ± 0.07 | −0.23 ± 0.20 | 0.28 ± 0.17 | 0.82 (0.73-0.92) | 0.83 ± 0.17 | 0.85 ± 0.51 | −0.02 ± 0.64 | 1.01 (0.65-1.58) | activity against the mutant virus (in words) [1]: completely inactive; inhibition of wild type HBV (in words) [2]: potent inhibitors
Nc1ccn([C@@H]2C=C(F)[C@H](CO)O2)c(=O)n1 [L-3′F-D4C, β-L-3′-fluoro-2′,3′--didehydro-2′, 3′--dideoxycytadine] | 1.65 ± 0.24 log10 | 2.3 µM | 2.68 ± 0.44 log10 | 220 ± 150 nM | 0.39 ± 0.15 | −0.11 ± 0.38 | 0.49 ± 0.51 | 0.71 (1.02-0.50) | 0.20 ± 0.20 | −0.28 ± 0.14 | 0.48 ± 0.13 | 0.72 (0.79-0.65) | total lactic acid production (in words) (HepG2 cells [4]): no increase in total lactic acid production; FI EC90 AD79/EC90 AD38 [1]: 10.5; Average ΔCt ± s.d. MitCoxII ([3]; HepG2, 14-day treatment, 1 μM): 0.13 ± 0.16; Average ΔCt ± s.d. rDNA ([3]; HepG2, 14-day treatment, 1 μM): 0.08 ± 0.25; Average ΔΔCt ± s.d. MitCOXII-rDNA ([3]; HepG2, 14-day treatment, 1 μM): 0.05 ± 0.26; Fold difference in COXII DNA levels normalized for rDNA (range) relative to control ([3]; HepG2, 14-day treatment, 1 μM): 0.96 (1.16-0.80); effect on mitochondrial DNA levels (in words) ([3]; 14 days): no reductions in mitochondrial DNA levels; effect on cell growth (in words) (HepG2 cells [5]): did not show any reduction in cell growth; EC90 ([2]; HepAD38 cells, 5-day incubation, concentration reducing viral load by 90%, unit printed in text only, listed as L-3F-D4C): 250 nM
Nc1nc(=O)n([C@@H]2CC[C@H](CO)O2)cc1F [L-FddC] | 0.02 log10 | > 10 µM | 2.03 log10 | 310 nM |  |  |  |  |  |  |  |  | 
Nc1ccn([C@@H]2C=C[C@H](CO)O2)c(=O)n1 [L-d4C] | 1.54 ± 0.38 log10 | 0.96 µM | 2.79 ± 0.08 log10 | 60 ± 20 nM | 2.72 ± 0.37 | 3.96 ± 0.87 | −1.24 ± 0.50 | 2.36 (1.67-3.35) | 6.82 ± 0.33 | 10.14 ± 0.77 | −3.32 ± 0.75 | 9.99 (5.92-16.85) | FI EC90 AD79/EC90 AD38 [1]: 16; effect on mitochondrial DNA levels (in words) ([3]; 14 days): did not specifically affect the mitochondrial DNA levels; effect on cell growth (in words) (HepG2 cells [5]): reduced the cell growth significantly
Nc1ccn([C@H]2CC[C@@H](CO)O2)c(=O)n1 [ddC, 2′,3′-dideoxycytidine] |  |  |  |  | 7.70 ± 0.08 | 0.92 ± 0.52 |  |  |  |  |  |  | Average ΔΔCt ± s.d. MitCOXII-rDNA ([3]; human, 14 days, 10 μM): 6.78 ± 0.56; Fold difference in COXII DNA levels normalized for rDNA (range) relative to control ([3]; human, 14 days, 10 μM): 0.01 (0.01-0.01)

— US20040157793A1, “Modified nucleosides as antiviral agents” (priority 2002, published 2004)
